Where a name gives a salt, the structure may show the parent alone. Read-outs that look alike come from different tables or passages of the source.
Tests used:
recombinant human GOT = target: T1, recombinant human GOT (Homo sapiens, UniProt P17174); test: GOT activity assay (inhibition of glutamate formation), photometric kit; format: biochemical; settings: for Maximum of inhibition of glutamate formation in confirmatory assay (%): confirmatory dose-response assay
T1 construct: purchased Abcam ab99147
T1 sequence (P17174 whole entry): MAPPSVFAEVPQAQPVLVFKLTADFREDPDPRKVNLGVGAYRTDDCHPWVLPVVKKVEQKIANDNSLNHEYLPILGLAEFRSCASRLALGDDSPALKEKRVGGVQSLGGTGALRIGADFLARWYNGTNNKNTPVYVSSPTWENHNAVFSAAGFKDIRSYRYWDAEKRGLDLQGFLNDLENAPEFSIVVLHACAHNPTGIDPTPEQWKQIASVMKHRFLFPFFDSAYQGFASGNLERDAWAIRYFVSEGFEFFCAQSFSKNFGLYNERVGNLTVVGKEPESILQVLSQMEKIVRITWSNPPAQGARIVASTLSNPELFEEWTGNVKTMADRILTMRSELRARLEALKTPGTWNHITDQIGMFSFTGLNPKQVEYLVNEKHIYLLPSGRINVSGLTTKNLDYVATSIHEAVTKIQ

[1] = target: T2, succinate dehydrogenase (SDH) (Homo sapiens, UniProt P31040); test: Complex II Enzyme Activity Microplate Assay (SDH inhibition); format: biochemical; settings: dose-response curve, FIG. 1; enzyme extracted from HepG2 cells
T2 construct: endogenous in cells; host or cells: HepG2 (ATCC HB-8065); complex captured with Abcam Complex II Enzyme Activity Microplate Assay ab109908
T2 sequence (P31040 43-664): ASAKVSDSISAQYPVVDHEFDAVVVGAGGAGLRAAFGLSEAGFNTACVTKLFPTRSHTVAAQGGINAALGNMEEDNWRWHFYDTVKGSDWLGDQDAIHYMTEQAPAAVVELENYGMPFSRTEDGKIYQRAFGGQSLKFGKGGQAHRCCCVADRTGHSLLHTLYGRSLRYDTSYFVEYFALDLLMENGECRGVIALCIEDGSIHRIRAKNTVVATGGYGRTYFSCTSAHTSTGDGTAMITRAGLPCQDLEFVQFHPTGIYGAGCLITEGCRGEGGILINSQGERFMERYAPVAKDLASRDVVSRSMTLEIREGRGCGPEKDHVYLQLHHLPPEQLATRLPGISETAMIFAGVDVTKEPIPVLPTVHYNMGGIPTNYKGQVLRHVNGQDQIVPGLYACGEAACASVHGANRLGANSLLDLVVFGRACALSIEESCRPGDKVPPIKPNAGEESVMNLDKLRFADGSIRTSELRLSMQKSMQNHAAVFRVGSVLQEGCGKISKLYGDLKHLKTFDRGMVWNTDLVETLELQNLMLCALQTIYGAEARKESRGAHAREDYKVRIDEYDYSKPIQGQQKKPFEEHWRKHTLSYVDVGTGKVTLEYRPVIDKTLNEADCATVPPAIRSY
T2 sequence (P21912 29-280 partner): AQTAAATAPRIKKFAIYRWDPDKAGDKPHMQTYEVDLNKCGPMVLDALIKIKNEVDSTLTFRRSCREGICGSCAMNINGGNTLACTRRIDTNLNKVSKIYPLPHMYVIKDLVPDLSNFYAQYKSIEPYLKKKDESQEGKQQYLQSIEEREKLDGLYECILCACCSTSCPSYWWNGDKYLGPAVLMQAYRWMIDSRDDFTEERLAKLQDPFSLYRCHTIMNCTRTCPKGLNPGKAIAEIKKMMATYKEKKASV
T2 sequence (Q99643 30-169 partner): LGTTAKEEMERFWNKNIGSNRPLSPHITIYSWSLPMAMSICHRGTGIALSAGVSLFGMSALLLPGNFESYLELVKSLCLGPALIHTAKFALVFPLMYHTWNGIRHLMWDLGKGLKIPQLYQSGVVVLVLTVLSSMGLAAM
T2 sequence (O14521 57-159 partner): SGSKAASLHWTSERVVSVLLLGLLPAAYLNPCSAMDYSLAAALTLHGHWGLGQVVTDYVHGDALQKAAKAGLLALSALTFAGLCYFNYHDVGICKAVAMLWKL
From the text: To evaluate possible toxic effects on SDH, a secondary assay was set up, using Complex II Enzyme Activity Microplate Assay (from Abcam, ref. ab109908), based on the detection of 2,6-diclorophenolindophenol (DCPID), blue, which is reduced in contact with Ubiquinol, turning colorless and involving the measurement of a decrease in absorbance at 595 nm. The enzyme was extracted from HepG2 cells (ATCC, ref. HB-8065), following manufacturer's instructions.

blood glutamate [2] = test: Blood glutamate lowering in healthy animals; format: in vivo, rat; settings: healthy rats; for percentage of blood glutamate lowering (respect to basal levels): riboflavin 1, 10 and 50 mg/Kg i.v.
Method: Experimental protocols were approved by the local Animal Care Committee according to the European Union (EU) rules (86/609/CEE, 2003/65/CE and 2010/63/EU). Male Sprague-Dawley rats (Harlan Laboratories, Barcelona, Spain) with an average weight of 350 g were used. Rats were watered and fed ad libitum. The dose-response effect of riboflavin on blood glutamate lowering was determined in healthy animals. Three (3) doses of riboflavin were tested (i.v.), 1, 10 and 50 mg/Kg (weight of animal). As control group was used animals treated with saline (0.9% of NaCl, pH adjusted to 7.4), and as positive control group, animals treated with oxaloacetate 35 mg/Kg. […] A total of 6 animals per group were included in this study. […] With this purpose, dose of 35mg/Kg (average weight of animals: 350 g) of oxaloacetate (Ref 171263, Sigma) was prepared in a saline solution (0.9% of NaCl, pH adjusted to 7.4) at a final concentration of 12.25 mg/mL. Dose of 15 mg/Kg of oxaloacetate was prepared in saline solution (0.9% of NaCl, pH adjusted to 7.4) at a final concentration of 5.25 mg/mL. Dose of 1 mg/Kg of riboflavin (Ref. 4500, Sigma) initially dissolved in a minimal amount of dimethyl sulfoxide (DMSO) and then dissolved in a saline solution (0.9% of NaCl, pH adjusted to 7.4) at a final concentration of 0.35 mg/mL. […] Serum samples were collected in test tubes, centrifuged at 3000 r.p.m. for 7 min, serum was removed and immediately frozen and stored at −80 ° C. Serum glutamate concentration was determined by means of Glutamate Assay Kit (Abnova, Taipei City, Taiwan) following the manufacturer's technical specifications.

blood glutamate [3] = test: Blood glutamate in ischemic (MCAO) animals; format: in vivo, rat; settings: MCAO rats, 2 hours after administration
Method: Treatments were administered after artery reperfusion (45 min after occlusion). A total of 10 animals per group were included in this study. […] Infarct volume analysis were evaluated during the occlusion (30 min after occlusion), and 24h and 7 days after ischemia induction. Infarct volume determined at 30 min after artery occlusion (analyzed by diffusion weighted imaging, DWI) (Perez-Mato, M., et al., Cell Death Dis., 2014, 5:e992) was determined before treatments administration to confirm that all animals included in the study were submitted to the same ischemic insult. These values were used as basal infarct volume. […] With this purpose, dose of 35mg/Kg (average weight of animals: 350 g) of oxaloacetate (Ref 171263, Sigma) was prepared in a saline solution (0.9% of NaCl, pH adjusted to 7.4) at a final concentration of 12.25 mg/mL. […] Dose of 1 mg/Kg of riboflavin (Ref. 4500, Sigma) initially dissolved in a minimal amount of dimethyl sulfoxide (DMSO) and then dissolved in a saline solution (0.9% of NaCl, pH adjusted to 7.4) at a final concentration of 0.35 mg/mL. […] Serum samples were collected in test tubes, centrifuged at 3000 r.p.m. for 7 min, serum was removed and immediately frozen and stored at −80 ° C. Serum glutamate concentration was determined by means of Glutamate Assay Kit (Abnova, Taipei City, Taiwan) following the manufacturer's technical specifications. […]

MCAO rats = test: Infarct volume by MRI in MCAO rats; format: in vivo, rat; settings: riboflavin 1 mg/Kg, 24 h and 7 days after ischemia
Method: Four (4) experimental groups were performed: 1) a control group treated with saline (0.9% of NaCl, pH adjusted to 7.4), 2) a group treated with riboflavin 1 mg/Kg, 3) a group treated with riboflavin 1 mg/Kg in combination with dose of oxaloacetate a non-effective (15 mg/Kg) and 4) a positive control group treated with oxaloacetate 35 mg/Kg. […] Treatments were administered after artery reperfusion (45 min after occlusion). A total of 10 animals per group were included in this study. […] Infarct volume analysis were evaluated during the occlusion (30 min after occlusion), and 24h and 7 days after ischemia induction. Infarct volume determined at 30 min after artery occlusion (analyzed by diffusion weighted imaging, DWI) (Perez-Mato, M., et al., Cell Death Dis., 2014, 5:e992) was determined before treatments administration to confirm that all animals included in the study were submitted to the same ischemic insult. These values were used as basal infarct volume. […] Infarct volume, also referred herein as infarct size, was assessed by means of magnetic resonance imaging (MRI). […] Infarct volumes were determined from (ADC maps) and T2-weighted images by manually selecting areas of reduced ADC values or hyperintense T2 signal by a researcher blinded to the animal protocols.

[4] = inhibition of glutamate formation, confirmatory assay, read-out: IC50(μM) in confirmatory assay
[5] = dose-response curve, FIG. 1, read-out: IC50 (GOT)

IC50 (recombinant human GOT; [5]) [µM]	IC50 [1] [µM]	Compound	Maximum of inhibition of glutamate formation in confirmatory assay (%) (recombinant human GOT)	IC50 (recombinant human GOT; [4]) [µM]	also measured
1.9	10.8	Cc1cc2nc3c(=O)[nH]c(=O)nc-3n(C[C@H](O)[C@H](O)[C@H](O)CO)c2cc1C [CBG000592, 7,8-dimethyl-10-[(2S,3S,4R)-2,3,4,5-tetrahydroxypentyl]benzo[g]pteridine-2,4-dione]	63	1.96	percentage of blood glutamate lowering (respect to basal levels) (blood glutamate [2]; 30 min): about 25%; percentage of blood glutamate lowering (respect to basal levels) (blood glutamate [2]; 2 h): about 50%; percentage of blood glutamate lowering (respect to basal levels) (blood glutamate [2]; 4 h): 60%; percentage of blood glutamate lowering (respect to basal levels) (blood glutamate [2]; 6 h): 50%; reduction of blood glutamate levels respect to basal levels (blood glutamate [3]; riboflavin 1 mg/Kg at reperfusion): about 30%; lesion size (infarct volume) versus control (MCAO rats): significant (p<0.001) decrease of lesion size
130	1.8	O=C(O)CC(=O)C(=O)O [oxaloacetate, 3-carboxy-3-oxopropanoate]			percentage of glutamate levels reduction (blood glutamate [2]; oxaloacetate 35 mg/Kg i.v., 2, 4 and 6 hours): ≤ 40%; reduction of blood glutamate levels (blood glutamate [2]; oxaloacetate 35 mg/Kg i.v., 30 min): no effect; reduction of blood glutamate levels respect to basal levels (blood glutamate [3]; oxaloacetate 35 mg/Kg at reperfusion): about 30%

The remaining lines, values behind:

Compound	IC50 (recombinant human GOT; [5]) [µM]	IC50 [1] [µM]	Maximum of inhibition of glutamate formation in confirmatory assay (%) (recombinant human GOT)	IC50 (recombinant human GOT; [4]) [µM]	also measured
CN1CCc2cccc3c2[C@H]1Cc1ccc(O)c(O)c1-3.CN1CCc2cccc3c2[C@H]1Cc1ccc(O)c(O)c1-3.Cl.Cl.O [CBG000083, R-(−)-Apomorphine hydrochloride hemihydrate]			56.5	58.1	
CC(CCc1ccc(O)cc1)NCCc1ccc(O)c(O)c1 (centres unmarked) [CBG000332, Dobutamine hydrochloride]			35.5	81.7	
(−)-3-(3,4-Dihydroxyphenyl)-2-methyl-L-alanine sesquihydrate [CBG000361]			38.5	117	
Doxycycline hyclate [CBG000814]			32	15.1	

From patent US20180153897A1, “RIBOFLAVIN FOR THE TREATMENT OF ISCHEMIC STROKE AND/OR OTHER GLUTAMATE EXCITOTOXICITY-ASSOCIATED DISEASES” (priority 2015, published 2018)
